Experimental data reported in paper PMC9603750, “Chalcone-Acridine Hybrid Suppresses Melanoma Cell Progression via G2/M Cell Cycle Arrest, DNA Damage, Apoptosis, and Modulation of MAP Kinases Activity” (International Journal of Molecular Sciences, 2022).

Assays:
Assay in all cases: MTT assay (metabolic activity)
MCF-10A = assay type: cell-based; settings: Homo sapiens; MCF-10A noncancer cell line, 72 h incubation
Method: (§1) Cell lines A2058 (human melanoma lymph node metastasis, cat. 91100402) from ECACC (Public Health England, Salisbury, UK) and BLM (human melanoma lung metastasis a gift from prof. K. Smetana, Institute of Anatomy, Charles University in Prague) were cultured in a medium consisting of high glucose Dulbecco’s Modified Eagle’s Medium (DMEM) and sodium pyruvate (GE Healthcare, Piscataway, NJ, USA). The growth medium was supplemented with a 10% fetal bovine serum (FBS) and antibiotic/antimycotic solution 1 × HyClone™ (GE Healthcare, Chicago, IL, USA). The MCF-10A (human mammary epithelial cells) cell line was cultured in a medium consisting of high glucose Dulbecco’s Modified Eagle’s Medium F12 (DMEM/F12) (Biosera, Kansas City, MO, USA). The growth medium was supplemented with a 10% FBS, antibiotic/antimycotic solution 1 × HyClone™ (GE Healthcare, Chicago, IL, USA), epidermal growth factor (EGF) (20 ng/mL final), hydrocortisone (0.5 μg/mL final) and insulin (10 μg/mL final) (Sigma-Aldrich Chemie, Steinheim, Germany). Cells were cultured in humidified air at 37 °C with atmosphere containing 5% CO2.
(§2) The half-maximal inhibitory concentration values (IC50) and metabolism inhibition of tested synthetic chalcone derivatives were determined by MTT (3-(4,5-di-methylthiazol-2-yl)2,5-diphenyltetrazolium bromide) colorimetric assay (Sigma-Aldrich Chemie, Steinheim, Germany). Tested cell lines were seeded at a density of 5 × 10^3 cells/well in 96-well culture plates. After 24 h, the tested chalcones in concentrations of 100, 50 and 10 μmol/L were added and incubation proceeded for the next 72 h. In the next step, 10 μL of MTT (5 mg/mL) was added to each well containing cells and incubated for another 4 h at 37 °C during which MTT was metabolized to insoluble formazan in cells. After 4 h, 100 μL of a 10% sodium dodecyl sulphate (SDS) was added to each well and another 24 h were allowed for the formazan crystals to dissolve. The metabolic activity of cells was evaluated by measuring the absorbance at wavelength 540 nm using the automated Cytation™ 3 Cell Imaging Multi-Mode Reader (Biotek, Winooski, VT, USA). Three independent analyses were performed.

A2058 = assay type: cell-based, human; settings: Homo sapiens; A2058, 72 h incubation
Method: as §1, §2

BLM = assay type: cell-based, human; settings: Homo sapiens; BLM, 72 h incubation
Method: as §1, §2

SMILES	IC50 (MCF-10A) [µM]	IC50 (A2058) [µM]	IC50 (BLM) [µM]
O=C(/C=C/c1c[nH]c2ccccc12)c1ccccc1F [ZKCH-11H, (2E)-1-(2-fluorophenyl)-3-(1H-indol-3-yl)prop-2-en-1-one]	60.7 ± 3.09	42.4 ± 2.98	40.9 ± 2.62
CC(C)Oc1[nH]c2ccccc2c1/C=C/C(=O)c1ccccc1F [ZKCH-11E, (2E)-1-(2-fluorophenyl)-3-[2-(propan-2-yloxy)-1H-indol-3-yl]prop-2-en-1-one]	44.7 ± 4.96	37.3 ± 2.28	33.8 ± 2.14
CC(C)COc1[nH]c2ccccc2c1/C=C/C(=O)c1ccccc1F [ZKCH-11G, (2E)-1-(2-fluorophenyl)-3-[2-(2-methylpropoxy)-1H-indol-3-yl]prop-2-en-1-one]	51.3 ± 3.94	40 ± 1.37	39.5 ± 3.9
CCCCOc1[nH]c2ccccc2c1/C=C/C(=O)c1ccccc1F [ZKCH-11F, (2E)-3-(2-butoxy-1H-indol-3-yl)-1-(2-fluorophenyl)prop-2-en-1-one]	> 100	45.8 ± 2.54	47.7 ± 1.49
CCOc1[nH]c2ccccc2c1/C=C/C(=O)c1ccccc1F [ZKCH-11C, (2E)-3-(2-ethoxy-1H-indol-3-yl)-1-(2-fluorophenyl)prop-2-en-1-one]	> 100	41.6 ± 0.73	38.55 ± 0.06
COn1cc(/C=C/C(=O)c2ccccc2F)c2ccccc21 [ZKCH-11A, (2E)-1-(2-fluorophenyl)-3-(1-methoxy-1H-indol-3-yl)prop-2-en-1-one]	85 ± 2.19	31.9 ± 0.95	35.3 ± 6.1
